Experimental data from US12493045B2, “Multi-target crosslinkers and uses thereof” (The Regents of the University of California, priority 2018, dated 2025).
Positions count from the first letter of the chain named.

Columns and labels:
HEK293T cells = assay: Toxicity on incubation with HEK293T cells; assay type: cell-based, mammalian; conditions: 0.6 mM HoQM incubated for different time duration (4 or 8 hr)
[1] = test system: SSB-19(3×) or SSB-ATC(4×) complex; assay: SSB protein-DNA oligo crosslinking (denaturing TBE-urea gel shift); assay type: biochemical; conditions: 19(3×) or ATC(4×) DNA, 1 mM crosslinker, UV 365 nm 15 min
[2] = molecular target: T1, 14-3-3 expressed in HEK293T cells (Homo sapiens, UniProt P63104); assay: 14-3-3 crosslinking in mammalian cells (Western blot); conditions: 4 mM NHQM, UV 365 nm 15 min
T1 sequence (P63104 1-245): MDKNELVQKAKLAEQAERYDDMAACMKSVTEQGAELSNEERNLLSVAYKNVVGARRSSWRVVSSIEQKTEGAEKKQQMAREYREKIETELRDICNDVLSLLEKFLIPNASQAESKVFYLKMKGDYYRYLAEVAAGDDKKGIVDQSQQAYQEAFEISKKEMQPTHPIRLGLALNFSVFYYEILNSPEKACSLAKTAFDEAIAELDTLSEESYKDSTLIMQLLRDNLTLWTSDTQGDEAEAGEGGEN
Experimental: We subsequently tested NHQM's crosslinking ability in mammalian cells. We incubated NHQM with live mammalian cells expressing the dimeric glutathione transferase (GST)^[9] or 14-3-3. […] Therefore, we tested using NHQM to crosslink proteins on mammalian cell surfaces. […] In addition, we further explored whether NHQM could probe endogenous mammalian proteins at physiologically relevant conditions. With this aim, we cultured MCF7 cells and treated them with or without NHQM, with or without UV, using the amine-reactive crosslinker bissulfosuccinimidyl suberate (BS^3) as a positive control.
Plasmid pCDNA3.1-14-3-3, pCDNA3.1-GST, or pCDNA3.1-EGFR (2 μg each) was transfected into one well of 6-well plate of HEK293T cells, respectively. After transfection, the cells were cultured at 37° C. for additional 24 hr. The cells were harvested and washed with PBS, pH 7.4 for one time, followed by resuspension in 50 μL PBS, pH 7.4. […] The samples were then quickly treated with 2×SDS loading dye containing 100 mM DTT, boiled at 95° C. for 5 mins, and analyzed by running Western blot using an anti-His antibody.
Plasmid pCDNA3.1-14-3-3 (2 μg) was transfected into one well of 6-well plate of HEK293T cells. […] The samples were then quickly treated with 2×SDS loading dye containing 100 mM DTT, boiled at 95° C. for 5 min, and analyzed with Western blot using an anti-His antibody.

[3] = molecular target: glutathione transferase (GST) expressed in HEK 293T cells (Escherichia coli, UniProt P0A9D2); assay: GST crosslinking in mammalian cells (Western blot); assay type: cell-based; conditions: 4 mM NHQM, UV 365 nm 15 min
14-3-3(QQR) mutant = molecular target: T2, 14-3-3(QQR) mutant (Homo sapiens, UniProt P63104, A13Q/E14R/L12Q); assay: Crosslinking of monomeric 14-3-3(QQR) mutant in vitro (SDS-PAGE); assay type: biochemical; conditions: 0-0.4 mM NHQM, UV 365 nm 15 min
T2 sequence (P63104 1-245 L12Q/A13Q/E14R): T1 sequence (P63104 1-245) with L12Q, A13Q, E14R
From the text: (§1) Following crosslinking, NHQM results in a short and rigid linkage, which requires close contact of target residue pairs for effective crosslinking. We therefore tested whether this feature of NHQM could be used to readily determine protein dimerization in vitro and in cell lysates. It has been reported that three mutations (^12LAE^14→^12QQR^14) of 14-3-3 disrupt the dimer interface to form a monomer, leading to a distinct function from WT 14-3-3, such as chaperone activity.^[17] [18] However, previously the 14-3-3(QQR) mutant was isolated from cells and then characterized as a monomer using size exclusion chromatography. This in vitro process is tedious, and the results may not represent what occur in the cellular environment. We first treated purified 14-3-3 WT and QQR mutant with various amounts of NHQM and illuminated with UV light of 365 nm (FIGS. 9A-9B). […] We then applied NHQM directly to cell lysates of E. coli cells expressing either 14-3-3 WT or its QQR mutant, without isolating the 14-3-3 proteins.
(§2) Utilizing NHQM to differentiate 14-3-3 dimer versus monomer.

[4] = molecular target: epidermal growth factor receptor (EGFR) (Homo sapiens, UniProt P00533); assay: Crosslinking of overexpressed EGFR on HEK293T cells (Western blot); conditions: HEK293T overexpressing EGFR, 4 mM NHQM, UV 365 nm 15 min
epidermal growth factor receptor (EGFR), sequence (P00533 25-1210): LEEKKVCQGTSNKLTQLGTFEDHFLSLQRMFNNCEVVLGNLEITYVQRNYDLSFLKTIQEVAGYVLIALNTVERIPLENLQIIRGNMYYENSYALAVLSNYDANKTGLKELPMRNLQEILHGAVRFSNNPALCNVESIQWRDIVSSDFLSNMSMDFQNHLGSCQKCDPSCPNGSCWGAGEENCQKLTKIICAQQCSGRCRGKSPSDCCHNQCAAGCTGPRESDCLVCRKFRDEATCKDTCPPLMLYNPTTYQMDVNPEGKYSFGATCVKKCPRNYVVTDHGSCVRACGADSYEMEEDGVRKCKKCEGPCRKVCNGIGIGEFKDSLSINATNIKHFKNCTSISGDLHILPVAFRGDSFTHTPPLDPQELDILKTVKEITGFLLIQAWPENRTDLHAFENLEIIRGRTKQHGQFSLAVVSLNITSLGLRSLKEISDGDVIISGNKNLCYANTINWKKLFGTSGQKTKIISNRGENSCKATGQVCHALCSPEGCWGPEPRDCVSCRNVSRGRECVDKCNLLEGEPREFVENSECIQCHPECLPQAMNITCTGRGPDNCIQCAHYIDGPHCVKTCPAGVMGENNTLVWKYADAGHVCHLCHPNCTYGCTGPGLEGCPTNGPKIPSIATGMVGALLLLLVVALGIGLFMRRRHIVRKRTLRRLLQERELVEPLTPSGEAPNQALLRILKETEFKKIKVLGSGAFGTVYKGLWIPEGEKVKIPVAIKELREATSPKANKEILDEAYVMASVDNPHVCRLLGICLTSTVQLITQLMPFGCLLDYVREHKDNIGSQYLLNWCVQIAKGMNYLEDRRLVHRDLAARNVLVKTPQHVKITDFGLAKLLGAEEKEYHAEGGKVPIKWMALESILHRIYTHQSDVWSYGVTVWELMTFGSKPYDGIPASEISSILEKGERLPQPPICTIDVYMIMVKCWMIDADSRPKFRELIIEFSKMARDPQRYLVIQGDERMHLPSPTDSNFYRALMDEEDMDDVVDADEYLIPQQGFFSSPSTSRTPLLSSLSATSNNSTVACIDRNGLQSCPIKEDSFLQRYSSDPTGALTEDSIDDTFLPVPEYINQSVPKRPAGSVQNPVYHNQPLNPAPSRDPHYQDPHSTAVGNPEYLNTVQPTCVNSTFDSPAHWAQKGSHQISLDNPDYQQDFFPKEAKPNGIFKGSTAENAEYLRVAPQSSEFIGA
Experimental: We subsequently tested NHQM's crosslinking ability in mammalian cells. […] Therefore, we tested using NHQM to crosslink proteins on mammalian cell surfaces.
Plasmid pCDNA3.1-14-3-3, pCDNA3.1-GST, or pCDNA3.1-EGFR (2 μg each) was transfected into one well of 6-well plate of HEK293T cells, respectively. After transfection, the cells were cultured at 37° C. for additional 24 hr. The cells were harvested and washed with PBS, pH 7.4 for one time, followed by resuspension in 50 μL PBS, pH 7.4. The cells were either added nothing or added with 4 mM NHQM and incubated at RT for 15 min. Then the cells were illuminated with or without UV at wavelength 365 nm for another 15 min. After that, the reaction was treated by adding 100 mM Tris-HCI, pH 7.5 and incubated at RT for 15 min. The samples were then quickly treated with 2×SDS loading dye containing 100 mM DTT, boiled at 95° C. for 5 mins, and analyzed by running Western blot using an anti-His antibody.

[5] = molecular target: T3, 14-3-3 protein (WT homodimer) (Homo sapiens, UniProt P63104); assay: Dimeric crosslinking of 14-3-3 WT in vitro (SDS-PAGE); assay type: biochemical
T3 sequence (P63104 1-245): T1 sequence (P63104 1-245)
From the text: We initially designed and synthesized a heterobifunctional crosslinker NHQM containing an NHS ester and a photocaged ortho-quinone methide (o-QM) (FIG. 7A). Two fluorines were installed at the methyl group ortho to the phenolic hydroxyl group, which was photocaged by an o-nitrobenzyl group. When in proximity to proteins, the reactive NHS ester will react with exposed Lys residues, planting the photocaged o-QM next to residues on interaction partners. UV release of o-nitrobenzyl induces elimination of a fluoride ion to generate o-QM spontaneously, which will subsequently crosslink with nearby nucleophilic side chains (FIG. 7A). […] We further studied the crosslinking rate by varying the duration of UV treatment immediately after addition of NHQM.
as §1
NHQM mediated 14-3-3 crosslinking in vitro.
as §2
HoQM mediated 14-3-3 crosslinking in vitro.

WT 14-3-3 protein = molecular target: T4, WT 14-3-3 protein (Homo sapiens, UniProt P63104); assay: Tandem MS (CXMS) of crosslinked 14-3-3; assay type: biochemical
T4 sequence (P63104 1-245): T1 sequence (P63104 1-245)
Experimental: Tryptic digestion of cross-linked proteins. Protein digestion was carried out by following a procedure described previously.^[28] Briefly, after crosslinking protein samples were quenched by adding 100 mM Tris-HCI, pH 7.4 for 15 min. […] Protein was collected by centrifugation for 10 min at 15,000 g. […] Digestion was terminated by adding formic acid at final concentration 5% (v/v). Digested peptides were desalted with C18 ZipTip, and eluted peptides were dried down with SpeedVac.
Mass spectrometry. Digested peptides were dissolved in 200 mM NH4HCO3 after clean-up and then subject to tandem mass spectrometry on a Thermo Q-Exactive Orbitrap. Crosslinked peptides. Peptides were separated by nano-LC Ultimate 3000 high-performance liquid chromatography system using an Acclaim PepMap C18 column (Thermo Scientific). […] The Q-Exactive mass spectrometer was operated in data-dependent mode with one full MS scan at R=70,000 (m/z=200) followed by ten HCD MS/MS scans at R=17,500 (m/z=200) using a stepped normalized collision energy of 28, 30, 35 eV. The AGC targets for the MS1 and MS2 scans were 3×10^6 and 1×10^5, respectively, and the maximum injection time for MS1 was 250 ms, and for MS2 was 200 ms. Precursors of the +1, +6 or above, or unassigned charge states were rejected; exclusion of isotopes was enabled; dynamic exclusion was set to 30 s. The crosslinking mass spectra were analyzed with pLink 2.3.^[29]

[6] = test system: SSB protein with viral M13mp18 DNA; assay: SSB protein-M13mp18 DNA crosslinking (denaturing TBE-urea gel shift); assay type: biochemical; conditions: 1 mM NHQM, UV 365 nm 15 min
Experimental: that are reported to interact with SSB^[24] [25] The SSB-DNA complex was treated with NHQM and UV activation, and analyzed by denaturing TBE-urea gel shift assay to detect covalent crosslinking between SSB and DNA. […] We further investigated protein-DNA crosslinking by incubating a natural single stranded circular viral DNA M13mp18 with the SSB protein.^[26] As shown in FIG. 21B (also FIGS. 22A-22B), the M13mp18 control DNA run as two isoforms in the denatured TBE-Urea gel due to its large size, a major form remained in the well and a minor form migrating in the gel.

[7] = molecular target: T5, 14-3-3 WT in E. coli cell lysate (Homo sapiens, UniProt P63104); assay: Crosslinking of 14-3-3 WT in E. coli cell lysate (Western blot); assay type: biochemical
T5 sequence (P63104 1-245): T1 sequence (P63104 1-245)
From the text: as §1

Thioredoxin (Trx) = Thioredoxin (Trx) (Escherichia coli, UniProt P0AA25); conditions: 1 mM or 10 mM NHQM, UV 365 nm 15 min, E. coli cell lysate
Thioredoxin (Trx), sequence (P0AA25 whole entry): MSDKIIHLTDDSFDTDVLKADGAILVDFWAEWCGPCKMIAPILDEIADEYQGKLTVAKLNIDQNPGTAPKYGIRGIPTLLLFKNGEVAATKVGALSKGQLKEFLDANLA
Experimental: We started by testing NHQM's ability to crosslink interacting proteins in E. coli cell lysates. […] We expressed His-tagged Trx in E. coli cells, and then applied NHQM to the cell lysate followed by UV activation.
Plasmid pBAD-Trx was transformed into BL21(DE3) E. coli cells, and the Trx protein expression was carried out following procedures described above except that the cell culture volume was decreased to 20 mL. After protein expression, the cells were harvested and resuspended in 15 mL 50 mM sodium phosphate buffer containing 200 mM NaCI, pH 7.5. The cells were broken by sonification. 15 μL cell suspension were taken and added with 0, 1, or 10 mM NHQM and incubated at RT for 15 min, followed by UV illumination at wavelength 365 nm for another 15 min. The reaction was then treated by adding 100 mM Tris-HCI, pH 7.5 and incubated at RT for 15 min. The samples were then quickly treated with SDS loading dye containing 100 mM DTT, boiled at 95° C. for 5 min, and then analyzed with Western blot using anti-His antibody.

[8] = molecular target: T6, 14-3-3 QQR mutant in E. coli cell lysate (Homo sapiens, UniProt P63104, A13Q/E14R/L12Q); assay: Crosslinking of 14-3-3 QQR mutant in E. coli cell lysate (Western blot); assay type: biochemical
T6 construct: expressed in transfected cells; host or cells: E. coli, cell lysate
T6 sequence (P63104 1-245 L12Q/A13Q/E14R): T1 sequence (P63104 1-245) with L12Q, A13Q, E14R
From the text: as §1

[9] = molecular target: endogenous EGFR in MCF7 cells (Homo sapiens, UniProt P00533); assay: Crosslinking of endogenous EGFR on mammalian cell surface (Western blot); assay type: cell-based; conditions: BS^3 as positive control
endogenous EGFR in MCF7 cells, sequence (P00533 25-1210): as the sequence (P00533 25-1210) above

[10] = test system: E. coli whole cell lysate; assay: CXMS analysis of cross-linked E. coli whole cell lysate; conditions: 10 mg/mL lysate, 40 mM crosslinker, RT 2 h
Experimental: To determine whether NHSF could be used in complex biological samples to generate novel cross-links for MS identification, we applied BS2G and NHSF on E. coli whole cell lysate.
Preparation of E. coli cell lysate. DH10β bacterial cells were cultured overnight. After cells were harvested by centrifugation, cell pellets were washed twice with PBS. Cells were resuspended with lysis buffer (50 mM Hepes, pH 8.3, 150 mM NaCl, 1×EDTA-free Complete Protease Inhibitor Cocktail) and incubate with lysozyme (1 mg/mL), DNase I (0.5 mg/mL) and RNase A (0.1 mg/mL) at 4° C. for 30 min. Cell lysates were sonicated for 3 min with 30% energy and filtrated with Amicon-0.5 ml 10K unit for 3 times.
Peptide and protein cross-linking. […] E. coli cell lysate: 20 uL lysate (10 mg/mL protein, 50 mM Hepes, pH 8.3, 150 mM NaCl) was incubate with 40 mM BS2G or 40 mM NHSF at RT for 2 h. BS2G cross-linking reaction was terminated at RT by adding 100 mM ammonium bicarbonate and incubating for 20 min. NHSF cross-linking reaction was terminated at RT by adding 100 mM DTT and incubating for 20 min.
Protein digestion. All protein samples were precipitated by six volumes of acetone at −20° C. for 30 min. Precipitated proteins were dried in air and resuspended in 8 M urea, 100 mM Tris, pH 8.5. […]

peptide 7KR (Ac-AAAKAAR) = assay: Reaction of crosslinker with model peptide 7KR (mass spectra); assay type: biochemical; conditions: 10 μM peptide, 10 μM crosslinker, PBS pH 7.5, RT 1 h
From the text: Reaction of NHSF with Model Peptide. We first tested the reactivity of NHSF with a model peptide (Ac-AAAKAAR (SEQ ID NO:1), 7KR) with a single Lys as a reactive group, and compared its reactivity towards BS2G (bis(sulfosuccinimidyl) 2,2,4,4-glutarate-d4, FIG. 2A), a commercial NHS-based homo-bifunctional crosslinker of similar length. […] Owing to the low reactivity of sulfonyl-fluorides and the lack of reactive groups in 7KR, additional reaction was not observed with the Arg sidechain.
Peptide and protein cross-linking.

[11] = molecular target: Bovine Serum Albumin (BSA) (Bos taurus, UniProt P02769); assay: CXMS analysis of cross-linked BSA
Bovine Serum Albumin (BSA), sequence (P02769 25-607): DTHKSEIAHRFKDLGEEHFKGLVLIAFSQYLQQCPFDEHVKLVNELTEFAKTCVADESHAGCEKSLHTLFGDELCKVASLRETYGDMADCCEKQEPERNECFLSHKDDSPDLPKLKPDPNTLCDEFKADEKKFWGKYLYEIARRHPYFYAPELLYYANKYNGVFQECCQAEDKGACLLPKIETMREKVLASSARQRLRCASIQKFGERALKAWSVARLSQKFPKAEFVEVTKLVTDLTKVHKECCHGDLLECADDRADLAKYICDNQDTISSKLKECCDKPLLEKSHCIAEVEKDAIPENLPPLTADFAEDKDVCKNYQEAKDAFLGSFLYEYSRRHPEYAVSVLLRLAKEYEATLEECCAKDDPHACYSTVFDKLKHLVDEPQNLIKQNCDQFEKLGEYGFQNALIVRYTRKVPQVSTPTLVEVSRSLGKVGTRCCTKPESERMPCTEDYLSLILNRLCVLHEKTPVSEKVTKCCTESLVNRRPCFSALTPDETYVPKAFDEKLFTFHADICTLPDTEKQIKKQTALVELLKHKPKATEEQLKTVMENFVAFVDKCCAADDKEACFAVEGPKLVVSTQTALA
Experimental: NHSF Cross-links Bovine Serum Albumin.
BSA: In a 20 μL reaction, 10 μM BSA (69 kDa, in PBS buffer, pH 7.5) was cross-linked at RT for 1 h with 1 mM BS2G or 1 mM NHSF, which corresponded to a 1:100 protein:cross-linker molar ratio. BS2G cross-linking reaction was terminated at RT by adding 20 mM ammonium bicarbonate and incubating for 20 min. NHSF cross-linking reaction was terminated at RT by adding 10 mM Dithiothreitol (DTT) and incubating for 20 min.
Protein digestion. All protein samples were precipitated by six volumes of acetone at −20° C. for 30 min. Precipitated proteins were dried in air and resuspended in 8 M urea, 100 mM Tris, pH 8.5. After reduction with 2 mM DTT for 20 min and alkylation with 10 mM iodoacetamide for 15 min in the dark, samples were diluted to 2 M urea with 100 mM Tris, pH 8.5, and digested with trypsin (at 50:1 protein:enzyme ratio) at 37° C. for 16 h. Digestion was stopped by adding formic acid to 5% final concentration, and digested peptides were desalted with stagetip.
Tandem mass spectrometric analysis. Mass spectrometry experiments were performed using an Orbitrap Fusion Lumos™ instrument (ThermoFisher, San Jose, CA) coupled with an UltiMate™ 3000 nano LC. Mobile phase A and B were water and acetonitrile, respectively, with 0.1% formic acid. […]

[12] = molecular target: T7, Glutathione S-Transferase (GST) (Escherichia coli, UniProt P0A9D2); assay: Cross-linking of GST (SDS-PAGE, Western blot, CXMS)
T7 sequence (P0A9D2 1-201): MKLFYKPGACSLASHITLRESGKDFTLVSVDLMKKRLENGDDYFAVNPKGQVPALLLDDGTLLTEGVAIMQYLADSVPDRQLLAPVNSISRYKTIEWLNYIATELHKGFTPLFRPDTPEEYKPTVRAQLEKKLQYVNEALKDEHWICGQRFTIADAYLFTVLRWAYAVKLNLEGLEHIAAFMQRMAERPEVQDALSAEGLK
Experimental: NHSF Cross-links Glutathione S-Transferase. To further validate the cross-linking specificity of NHSF, the homodimeric Glutathione S-Transferase (GST) was cross-linked by NHSF or BS2G.
Peptide and protein cross-linking. […] BS2G cross-linking reaction was terminated at RT by adding 20 mM ammonium bicarbonate and incubating for 20 min. NHSF cross-linking reaction was terminated at RT by adding 10 mM Dithiothreitol (DTT) and incubating for 20 min. GST: In a 20 μL reaction, 10 μM GST (23 kDa, in PBS buffer, pH 7.5) was cross-linked at RT for 1 h with 0.5 mM BS2G or 0.5 mM NHSF, which corresponded to a 1:50 protein:cross-linker molar ratio. The cross-linking reactions were similarly terminated as described in the BSA section above.

O=C(c1ccc(OCc2ccccc2[N+](=O)[O-])c(C(F)F)c1)N1CCN(C(=O)c2ccc(OCc3ccccc3[N+](=O)[O-])c(C(F)F)c2)CC1 [HoQM]
Toxicity to HEK293T cells (HEK293T cells): without apparent toxicity

O=C(ON1C(=O)CCC1=O)c1ccc(OCc2ccccc2[N+](=O)[O-])c(C(F)F)c1 [NHQM]
SSB-DNA crosslinking (upshifted band) [1]: upshifted band was only observed for the SSB-19(3×) or SSB-ATC(4×) complex treated with both NHQM and UV light | Efficiency of dimeric crosslinking of 14-3-3 in live mammalian cells [2]: < 10% | Efficiency of dimeric crosslinking of GST in live mammalian cells [3]: < 10% | Crosslinking of 14-3-3 QQR (14-3-3(QQR) mutant): remained a monomer even at NHQM concentration up to 0.4 mM | EGFR dimer on Western blot [4]: EGFR dimer was detected | Crosslinked dimer of 14-3-3 WT versus crosslinker amount ([5]; 0-0.4 mM NHQM, UV 365 nm 15 min): increased with higher NHQM concentration | UV exposure at which crosslinking of 14-3-3 could be observed ([5]; 1 mM NHQM, UV 365 nm, SDS-PAGE): 1 min | Crosslinked dimer of 14-3-3 ([5]; 1 mM crosslinker, with or without UV 365 nm, SDS-PAGE): detected only with addition of NHQM crosslinker and UV illumination | Pairs of crosslinked peptides identified (WT 14-3-3 protein; crosslinked 14-3-3, tandem MS): Eight | Residues crosslinked with Lys (WT 14-3-3 protein; crosslinked 14-3-3, tandem MS): Arg, Asn, Gln, Glu, Lys, or Ser | Cα-Cα distance of the crosslink exceeding the limit (WT 14-3-3 protein; limit ~22 Å): 23.7 Å | SSB-M13mp18 crosslinking (upshift of minor form) [6]: only in the presence of both NHQM treatment and UV activation was the minor form of M13mp18 upshifted into the well | Dimeric crosslinking of 14-3-3 WT in cell lysate [7]: crosslinked as dimer | Crosslinking of endogenous proteins to Trx (Thioredoxin (Trx)): many endogenous proteins were crosslinked to Trx | Dimeric crosslinking of 14-3-3 QQR mutant in cell lysate [8]: not the QQR mutant | Crosslinking efficiency of endogenous EGFR [9]: comparable to the commercial crosslinker BS^3

O=C(CCCCCCC(=O)ON1C(=O)CC(S(=O)(=O)O)C1=O)ON1C(=O)CC(S(=O)(=O)O)C1=O (stereo not drawn) [BS^3, bissulfosuccinimidyl suberate, reference compound]
SSB-DNA crosslinking (upshifted band) [1]: did not result in SSB-DNA crosslinking

[2H]C([2H])(CC(=O)ON1C(=O)CC(S(=O)(=O)O)C1=O)C([2H])([2H])C(=O)ON1C(=O)CC(S(=O)(=O)O)C1=O (stereo not drawn) [BS2G, bis(sulfosuccinimidyl) 2,2,4,4-glutarate-d4]
Inter-linked peptides identified [10]: 106 | Products detected after reaction with peptide 7KR (peptide 7KR (Ac-AAAKAAR)): both a mono-linked peptide as well as the cross-linked dimer | Inter-peptide cross-links identified by MS ([11]; 10 μM BSA, 1 mM crosslinker, RT 1 h): 18 | Cross-linked peptides exceeding the distance limit ([11]; limit of 20 Å Cα-Cα, BSA structure PDB 3V03): four | Cross-linked peptides identified by MS ([12]; 10 μM GST, 0.5 mM crosslinker, RT 1 h): 15 | Cross-links incompatible with the GST structure ([12]; out of 15 cross-links, PDB 1N2A): 6
